For one data set, the target named is Aurora kinase B (Homo sapiens, UniProt Q96GD4). Description: Inhibition of full-length recombinant human His-tagged AURKB expressed in baculovirus expression system by LanthaScreen assay. Background: In TR-FRET formats the signal depends on donor and acceptor labels being close together.
Data set [1] deals with MDR1 (ABCB1, P-glycoprotein) (Rattus norvegicus, UniProt P43245). Description: Substrate activity at rat MDR1 expressed in LLC-PK1 cells assessed as efflux ratio of permeability across basolateral to apical over apical to basolateral side at 5 uM. The format is ADME, cell-based.
Data set [2] has as its target Ribosomal protein S6 kinase alpha-3 (Homo sapiens, UniProt P51812). Nature of the data set: Inhibition of full-length recombinant human His-tagged RPS6KA3 expressed in baculovirus expression system by Z'-LYTE assay.
A further data set concerns the target T1, Ephrin type-A receptor 3 (Homo sapiens, UniProt P29320).
T1 sequence (P29320 whole entry): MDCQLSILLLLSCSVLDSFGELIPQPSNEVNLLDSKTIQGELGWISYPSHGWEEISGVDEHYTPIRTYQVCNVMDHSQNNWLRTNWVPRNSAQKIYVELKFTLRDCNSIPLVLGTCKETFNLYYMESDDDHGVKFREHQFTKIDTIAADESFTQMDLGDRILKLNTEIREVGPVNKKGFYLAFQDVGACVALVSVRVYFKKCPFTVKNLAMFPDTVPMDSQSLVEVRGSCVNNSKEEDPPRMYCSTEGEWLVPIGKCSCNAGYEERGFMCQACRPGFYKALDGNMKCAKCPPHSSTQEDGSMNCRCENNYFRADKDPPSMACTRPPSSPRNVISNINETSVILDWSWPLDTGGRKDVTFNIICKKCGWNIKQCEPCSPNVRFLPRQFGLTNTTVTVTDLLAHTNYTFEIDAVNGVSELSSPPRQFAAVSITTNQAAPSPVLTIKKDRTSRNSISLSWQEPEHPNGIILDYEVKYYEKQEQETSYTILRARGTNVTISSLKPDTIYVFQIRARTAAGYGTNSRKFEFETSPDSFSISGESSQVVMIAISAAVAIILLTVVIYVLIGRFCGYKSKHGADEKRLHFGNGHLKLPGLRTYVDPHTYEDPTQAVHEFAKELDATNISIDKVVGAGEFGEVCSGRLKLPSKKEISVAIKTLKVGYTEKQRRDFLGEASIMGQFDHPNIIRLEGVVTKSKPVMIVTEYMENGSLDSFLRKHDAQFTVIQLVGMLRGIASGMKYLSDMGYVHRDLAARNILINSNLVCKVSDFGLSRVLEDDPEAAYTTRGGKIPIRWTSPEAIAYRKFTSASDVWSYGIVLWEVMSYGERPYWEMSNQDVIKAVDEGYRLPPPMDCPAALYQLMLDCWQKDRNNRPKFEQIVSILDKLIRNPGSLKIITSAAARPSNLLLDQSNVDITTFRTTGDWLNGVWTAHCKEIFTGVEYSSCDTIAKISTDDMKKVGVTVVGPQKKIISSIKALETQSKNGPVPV
Description: Inhibition of recombinant human His-tagged cytoplasmic EPHA3 expressed in baculovirus expression system by LanthaScreen assay.

For data set [3], the target named is MDR1 (ABCB1, P-glycoprotein) (Homo sapiens, UniProt P08183). Nature of the data set: Substrate activity at human MDR1 expressed in LLC-PK1 cells assessed as efflux ratio of permeability across basolateral to apical over apical to basolateral side at 5 uM. The format is ADME, cell-based.
Data set [4] addresses Insulin-like growth factor 1 receptor (Homo sapiens, UniProt P08069). Description: Inhibition of recombinant human C-terminal His-tagged cytoplasmic IGF1R (960 to 1397 residues) expressed in baculovirus expression system by Z'-LYTE assay.
In data set [5] the target is Mitogen-activated protein kinase 1 (Homo sapiens, UniProt P28482). Nature of the data set: Inhibition of full-length recombinant human GST-tagged MAPK1 expressed in Escherichia coli by Z'-LYTE assay.
Mitogen-activated protein kinase 1, sequence (P28482 whole entry): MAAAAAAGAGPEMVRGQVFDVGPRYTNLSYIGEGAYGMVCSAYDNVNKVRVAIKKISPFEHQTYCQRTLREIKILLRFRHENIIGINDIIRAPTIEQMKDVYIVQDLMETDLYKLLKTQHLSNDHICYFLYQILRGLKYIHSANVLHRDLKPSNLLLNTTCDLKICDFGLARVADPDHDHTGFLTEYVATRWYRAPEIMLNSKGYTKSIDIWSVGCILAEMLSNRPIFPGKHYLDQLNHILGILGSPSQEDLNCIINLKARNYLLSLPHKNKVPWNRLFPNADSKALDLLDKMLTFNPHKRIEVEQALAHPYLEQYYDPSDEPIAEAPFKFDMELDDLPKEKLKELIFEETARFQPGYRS
Data set [6] addresses Serine/threonine-protein kinase Nek6 (Homo sapiens, UniProt Q9HC98). Nature of the data set: Inhibition of full-length recombinant human GST-tagged NEK6 expressed in insect cells by Z'-LYTE assay.
The nature of data set [7]: Volume of distribution in Sprague-Dawley rat at 1 mL/kg, iv administered through catheter or 5 mL/kg administered through gastric gavage measured after 24 hrs by LC-MS/MS analysis. The format is ADME, organism-based. The following applies: in vivo.
For data set [8], the target named is T2, Serine/threonine-protein kinase TBK1 (Homo sapiens, UniProt Q9UHD2).
T2 sequence (Q9UHD2 whole entry): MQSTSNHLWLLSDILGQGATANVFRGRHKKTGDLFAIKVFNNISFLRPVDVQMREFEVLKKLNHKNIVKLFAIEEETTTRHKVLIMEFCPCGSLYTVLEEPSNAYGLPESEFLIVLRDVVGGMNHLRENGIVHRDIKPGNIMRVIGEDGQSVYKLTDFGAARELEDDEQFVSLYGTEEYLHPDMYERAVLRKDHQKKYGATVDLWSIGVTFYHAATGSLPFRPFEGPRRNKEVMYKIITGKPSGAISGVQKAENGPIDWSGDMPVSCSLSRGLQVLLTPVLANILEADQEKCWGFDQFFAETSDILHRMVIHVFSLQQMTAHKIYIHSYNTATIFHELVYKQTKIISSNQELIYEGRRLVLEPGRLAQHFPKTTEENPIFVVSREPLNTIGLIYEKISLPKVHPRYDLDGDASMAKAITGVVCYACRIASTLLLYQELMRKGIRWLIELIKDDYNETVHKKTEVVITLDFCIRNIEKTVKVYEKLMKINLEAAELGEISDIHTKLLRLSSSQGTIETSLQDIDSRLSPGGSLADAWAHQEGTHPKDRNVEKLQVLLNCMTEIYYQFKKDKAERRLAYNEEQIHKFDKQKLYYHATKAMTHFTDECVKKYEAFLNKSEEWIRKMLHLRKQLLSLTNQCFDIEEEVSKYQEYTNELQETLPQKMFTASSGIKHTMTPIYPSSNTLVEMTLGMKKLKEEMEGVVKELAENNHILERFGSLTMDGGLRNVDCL
Description: Inhibition of full-length recombinant human GST-tagged TBK1 expressed in insect cells by Z'-LYTE assay.

Data set [9] can be described thus: Inhibition of full-length recombinant human GST-tagged PKG2 expressed in baculovirus expression system by Z'-LYTE assay.
Data set [10] in a line: Solubility of the compound at pH 2. The following applies: buffer. The format is physicochemical.
A short description of data set [11]: Oral bioavailability in Sprague-Dawley rat at 5 mL/kg administered through gastric gavage measured after 24 hrs by LC-MS/MS analysis. The format is ADME, organism-based. The note with it: in vivo.
Data set [12] concerns the target Dual specificity protein kinase CLK2 (Homo sapiens, UniProt P49760). Nature of the data set: Inhibition of recombinant human GST-tagged CLK2 catalytic domain expressed in baculovirus expression system by Z'-LYTE assay.
Data set [13] addresses Tyrosine-protein kinase ABL1 (Homo sapiens, UniProt P00519). Nature of the data set: Inhibition of full-length human His-tagged ABL1 expressed in baculovirus expression system by Z'-LYTE assay.
In data set [14] the target is Fibroblast growth factor receptor 2 (Homo sapiens, UniProt P21802). Description: Inhibition of recombinant human His-tagged cytoplasmic FGFR2 expressed in baculovirus expression system by Z'-LYTE assay.
Fibroblast growth factor receptor 2, sequence (P21802 whole entry, the tested form may be a part): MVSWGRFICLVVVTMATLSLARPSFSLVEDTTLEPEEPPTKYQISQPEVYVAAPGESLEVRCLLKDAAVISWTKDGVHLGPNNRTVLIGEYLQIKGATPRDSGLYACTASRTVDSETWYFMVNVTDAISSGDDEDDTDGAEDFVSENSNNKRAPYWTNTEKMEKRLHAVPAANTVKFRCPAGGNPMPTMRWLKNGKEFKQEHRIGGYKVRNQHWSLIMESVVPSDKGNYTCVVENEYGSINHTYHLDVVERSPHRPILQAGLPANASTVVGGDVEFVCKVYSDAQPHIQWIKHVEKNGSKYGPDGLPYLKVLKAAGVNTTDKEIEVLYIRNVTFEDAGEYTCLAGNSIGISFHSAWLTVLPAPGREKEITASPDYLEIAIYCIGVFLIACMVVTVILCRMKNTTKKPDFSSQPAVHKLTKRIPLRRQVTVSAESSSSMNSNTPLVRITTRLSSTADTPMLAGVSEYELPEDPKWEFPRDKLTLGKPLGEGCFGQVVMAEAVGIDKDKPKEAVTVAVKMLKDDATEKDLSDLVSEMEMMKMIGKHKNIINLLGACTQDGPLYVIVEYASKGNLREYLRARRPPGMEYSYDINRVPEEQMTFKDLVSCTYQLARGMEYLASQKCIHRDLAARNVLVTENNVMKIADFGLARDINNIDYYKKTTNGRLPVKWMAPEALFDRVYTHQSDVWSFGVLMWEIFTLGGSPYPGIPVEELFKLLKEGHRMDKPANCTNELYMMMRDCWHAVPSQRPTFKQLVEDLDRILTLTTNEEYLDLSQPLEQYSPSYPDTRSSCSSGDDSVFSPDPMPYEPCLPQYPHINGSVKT
Data set [15] deals with Leucine-rich repeat serine/threonine-protein kinase 2 (Homo sapiens, UniProt Q5S007). Nature of the data set: Inhibition of recombinant human GST-tagged LRRK2 catalytic domain expressed in baculovirus expression system by Adapta assay.
The nature of data set [16]: Solubility of the compound at pH 7. The format is physicochemical. The note with it: buffer.

Converted amounts (≈) assume the structure as drawn.

Tyrosine-protein kinase ABL1, sequence (P00519 whole entry): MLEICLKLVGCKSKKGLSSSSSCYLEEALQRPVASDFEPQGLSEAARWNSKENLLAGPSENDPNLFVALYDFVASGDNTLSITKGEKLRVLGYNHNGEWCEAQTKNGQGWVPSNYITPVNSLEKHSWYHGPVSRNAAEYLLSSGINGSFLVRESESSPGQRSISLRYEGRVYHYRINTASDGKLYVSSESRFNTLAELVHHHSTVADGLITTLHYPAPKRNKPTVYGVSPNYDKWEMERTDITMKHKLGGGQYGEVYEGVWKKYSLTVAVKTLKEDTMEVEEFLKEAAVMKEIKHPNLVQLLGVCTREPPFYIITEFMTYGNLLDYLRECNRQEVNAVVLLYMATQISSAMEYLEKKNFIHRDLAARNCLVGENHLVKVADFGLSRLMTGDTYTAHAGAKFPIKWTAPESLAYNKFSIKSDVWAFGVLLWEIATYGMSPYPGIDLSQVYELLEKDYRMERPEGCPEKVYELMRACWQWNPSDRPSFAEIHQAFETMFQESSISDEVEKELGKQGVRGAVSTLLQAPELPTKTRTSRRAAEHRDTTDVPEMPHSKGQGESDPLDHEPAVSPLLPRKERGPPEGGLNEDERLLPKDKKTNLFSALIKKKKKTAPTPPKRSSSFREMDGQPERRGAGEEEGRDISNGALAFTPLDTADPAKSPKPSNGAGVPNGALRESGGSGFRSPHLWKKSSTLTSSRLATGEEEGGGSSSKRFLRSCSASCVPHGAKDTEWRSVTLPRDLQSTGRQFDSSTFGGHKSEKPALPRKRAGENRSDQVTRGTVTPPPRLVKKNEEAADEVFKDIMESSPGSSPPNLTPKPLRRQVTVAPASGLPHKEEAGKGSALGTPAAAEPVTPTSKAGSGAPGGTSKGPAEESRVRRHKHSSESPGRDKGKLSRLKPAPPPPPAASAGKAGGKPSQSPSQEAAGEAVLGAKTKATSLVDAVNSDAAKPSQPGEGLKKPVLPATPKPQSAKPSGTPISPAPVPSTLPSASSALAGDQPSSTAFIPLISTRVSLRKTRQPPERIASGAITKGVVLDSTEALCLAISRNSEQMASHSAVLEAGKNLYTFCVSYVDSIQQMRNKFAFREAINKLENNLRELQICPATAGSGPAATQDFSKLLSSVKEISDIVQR
Dual specificity protein kinase CLK2, sequence (P49760 whole entry, the tested form may be a part): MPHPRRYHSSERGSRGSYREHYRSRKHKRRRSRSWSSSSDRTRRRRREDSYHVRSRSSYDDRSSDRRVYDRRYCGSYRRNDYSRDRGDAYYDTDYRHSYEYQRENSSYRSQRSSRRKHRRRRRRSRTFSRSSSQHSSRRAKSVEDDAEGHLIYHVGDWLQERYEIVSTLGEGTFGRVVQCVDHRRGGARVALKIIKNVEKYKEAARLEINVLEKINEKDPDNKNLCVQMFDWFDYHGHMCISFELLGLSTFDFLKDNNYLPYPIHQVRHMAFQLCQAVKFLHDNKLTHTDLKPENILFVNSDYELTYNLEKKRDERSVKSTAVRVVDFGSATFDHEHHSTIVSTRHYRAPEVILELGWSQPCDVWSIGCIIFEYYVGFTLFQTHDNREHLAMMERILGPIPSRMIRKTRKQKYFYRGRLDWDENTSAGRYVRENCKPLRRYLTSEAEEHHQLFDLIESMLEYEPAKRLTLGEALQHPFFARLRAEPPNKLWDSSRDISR
Insulin-like growth factor 1 receptor, sequence (P08069 31-736 limits assumed): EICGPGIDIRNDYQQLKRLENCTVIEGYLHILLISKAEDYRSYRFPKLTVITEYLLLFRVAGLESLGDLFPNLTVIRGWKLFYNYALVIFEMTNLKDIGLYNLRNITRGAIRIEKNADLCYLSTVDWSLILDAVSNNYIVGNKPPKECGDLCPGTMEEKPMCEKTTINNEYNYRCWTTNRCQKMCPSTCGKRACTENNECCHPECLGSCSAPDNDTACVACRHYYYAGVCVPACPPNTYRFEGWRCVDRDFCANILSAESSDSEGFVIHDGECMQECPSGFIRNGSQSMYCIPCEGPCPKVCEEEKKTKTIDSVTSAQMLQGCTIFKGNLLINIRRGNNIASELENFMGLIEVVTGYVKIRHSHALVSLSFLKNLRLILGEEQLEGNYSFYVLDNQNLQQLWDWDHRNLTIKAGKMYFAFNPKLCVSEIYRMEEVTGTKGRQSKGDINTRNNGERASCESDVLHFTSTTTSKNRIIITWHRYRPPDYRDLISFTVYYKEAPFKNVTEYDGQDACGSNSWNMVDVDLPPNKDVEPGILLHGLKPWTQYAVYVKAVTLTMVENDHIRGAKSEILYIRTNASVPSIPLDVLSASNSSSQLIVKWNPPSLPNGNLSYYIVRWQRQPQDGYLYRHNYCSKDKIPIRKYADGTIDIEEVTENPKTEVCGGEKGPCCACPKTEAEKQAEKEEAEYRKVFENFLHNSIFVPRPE
Insulin-like growth factor 1 receptor, sequence (P08069 741-1367 limits assumed): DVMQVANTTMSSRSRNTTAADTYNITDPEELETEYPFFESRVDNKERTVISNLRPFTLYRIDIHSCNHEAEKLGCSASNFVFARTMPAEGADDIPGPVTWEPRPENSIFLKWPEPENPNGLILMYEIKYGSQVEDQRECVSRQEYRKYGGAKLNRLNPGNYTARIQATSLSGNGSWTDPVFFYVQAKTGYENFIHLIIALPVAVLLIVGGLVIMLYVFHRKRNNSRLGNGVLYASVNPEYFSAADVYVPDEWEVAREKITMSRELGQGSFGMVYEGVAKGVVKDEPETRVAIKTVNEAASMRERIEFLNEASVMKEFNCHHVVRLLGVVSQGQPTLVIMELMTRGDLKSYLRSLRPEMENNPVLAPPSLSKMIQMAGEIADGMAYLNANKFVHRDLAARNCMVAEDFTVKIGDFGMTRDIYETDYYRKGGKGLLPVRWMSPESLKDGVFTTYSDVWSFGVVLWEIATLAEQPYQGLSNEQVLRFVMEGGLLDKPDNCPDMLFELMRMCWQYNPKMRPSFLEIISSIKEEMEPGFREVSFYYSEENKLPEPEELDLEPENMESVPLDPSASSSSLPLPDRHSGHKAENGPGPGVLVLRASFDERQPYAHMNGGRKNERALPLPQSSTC
Serine/threonine-protein kinase Nek6, sequence (Q9HC98 whole entry): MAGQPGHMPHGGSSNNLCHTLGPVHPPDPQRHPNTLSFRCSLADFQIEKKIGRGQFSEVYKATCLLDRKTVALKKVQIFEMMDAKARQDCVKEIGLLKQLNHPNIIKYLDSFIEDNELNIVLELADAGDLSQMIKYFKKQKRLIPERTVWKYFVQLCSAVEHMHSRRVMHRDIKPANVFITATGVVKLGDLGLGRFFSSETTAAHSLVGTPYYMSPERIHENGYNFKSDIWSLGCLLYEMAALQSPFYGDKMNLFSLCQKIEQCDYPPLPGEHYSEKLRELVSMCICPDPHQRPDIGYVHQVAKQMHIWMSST
Aurora kinase B, sequence (Q96GD4 whole entry): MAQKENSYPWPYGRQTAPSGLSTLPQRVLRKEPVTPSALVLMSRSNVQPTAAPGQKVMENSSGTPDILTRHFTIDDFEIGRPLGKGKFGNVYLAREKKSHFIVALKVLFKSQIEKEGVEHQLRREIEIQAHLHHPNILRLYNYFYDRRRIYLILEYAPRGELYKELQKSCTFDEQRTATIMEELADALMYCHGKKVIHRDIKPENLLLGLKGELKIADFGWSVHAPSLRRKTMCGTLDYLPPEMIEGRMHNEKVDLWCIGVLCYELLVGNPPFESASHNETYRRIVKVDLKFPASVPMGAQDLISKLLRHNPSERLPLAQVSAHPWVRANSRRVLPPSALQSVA

In the case of `Cn1cc(-c2cnc3c(-c4csc(C(=O)NCC(F)(F)F)c4)cnn3c2)cn1`, the half-maximal inhibitory concentration (IC50) (commonly the concentration at which inhibition is half-maximal) at Aurora kinase B is < 10 nM; in data set [2] it was 380 nM; at Ephrin type-A receptor 3 it was 52 nM; in data set [4] it was > 100000 nM; in data set [5], 18000 nM; in [6], 5900 nM. For the same compound, the IC50 in data set [8] is < 10 nM; in data set [9], 480 nM; in data set [12], < 10 nM; in data set [13], < 10 nM; in data set [14], 170 nM; in [15], < 10 nM. Further, the efflux ratio (as a rule, the permeability from basolateral to apical divided by that in the opposite direction, in the common usage) at 5 µM in data set [1] was 1.9; in data set [3], 1.4. Besides, the Vd in data set [7] stood at 0.77 L/kg. Moreover, the solubility (usually how much of the substance goes into solution per volume) in [10] was < 3 µM. Besides, the bioavailability (in general, dose-corrected exposure relative to a reference, in per cent) in [11] was determined as 53%.
On to `Cc1sc(C(=O)N[C@@H]2[C@H](N)CCCC2(F)F)cc1-c1cnn2cc(Cl)cnc12`, for which the 50% inhibitory concentration (IC50) on Aurora kinase B was 4600 nM; in data set [2], 47 nM; at Ephrin type-A receptor 3, > 100000 nM; in [4], > 100000 nM; in [5], 1200 nM; in data set [6] it was 17000 nM. In addition, the concentration for half-maximal inhibition (IC50) in [8] was < 10 nM; in data set [9], 990 nM; in data set [12], 110 nM; in [13], 9100 nM; in data set [14], 17000 nM; in data set [15], 62 nM. Also, in data set [3], the efflux ratio at 5 µM turned out to be 2.9. The solubility was determined as 114 µM (≈ 48.6 µg/mL) in [16] and 206 µM (≈ 87.7 µg/mL) in data set [10]. The compound also showed a Vd in [7] of 1.3 L/kg.
As to `O=C(NCC(F)(F)F)c1cc(-c2cnn3cc(-c4ccc(OCCN5CCCCC5)cc4)cnc23)cs1`, the 50% inhibitory concentration (IC50) on Aurora kinase B was 33 nM; in data set [2], 260 nM; at Ephrin type-A receptor 3, 180 nM; in data set [4], > 100000 nM; in data set [5], 12000 nM; in data set [6], 8800 nM. Besides, the concentration for half-maximal inhibition (IC50) was < 10 nM in [8]; < 10 nM in data set [12]; < 10 nM in data set [13]; 70 nM in data set [14]; 14 nM in data set [15]. Moreover, the Vd in data set [7] worked out at 14.2 L/kg. In addition, in [11], the bioavailability amounted to 46%.
As for `Cn1cc(-c2cnc3c(-c4csc(C(=O)N[C@@H]5CCCC[C@@H]5N)c4)cnn3c2)cn1` (racemic), the half-maximal inhibitory concentration (IC50) on Aurora kinase B was 28 nM; in data set [2], < 1 nM; on Ephrin type-A receptor 3, 22 nM; in data set [4], 2800 nM; in [5] it was 230 nM; in data set [6], 2600 nM. Besides, the concentration for half-maximal inhibition (IC50) in data set [8] is < 1 nM; in [12], 14 nM; in data set [13], 1.3 nM; in data set [14], 11 nM; in data set [15] it was 3.1 nM. Moreover, the results for the efflux ratio at 5 µM in data set [1] and in data set [3] were 54 and 24, respectively. In data set [16], this compound returned a solubility of 68 µM (≈ 28.7 µg/mL). Also, the Vd in [7] came out at 29 L/kg.

For the origin of these results see ChEMBL document CHEMBL4477252, “Optimization of microtubule affinity regulating kinase (MARK) inhibitors with improved physical properties” (Bioorg Med Chem Lett, 2016).
